Common to all, as to assay type: in vivo, rat
Data set [1] concerns rats with streptozotocin-induced diabetes. Kind of data set: Plasma concentrations of ET-1, bigET-1 and angiotensin-II in streptozotocin-induced diabetic rats. The note with it: 30 mg/kg/day oral, 18 weeks. The protocol:
(§1) All experiments were conducted in accordance with guidelines for the care and use of laboratory animals. Diabetes was induced in rats by a single tail vein injection of streptozotocin (60 mg/kg b.wt.), without insulin treatment, as recently described in Horcher et al., “Renal endothelin system in diabetes: inhibition and endothelin-A antagonism.”, J. Cardiovasc. Pharmacol. 1998; 31: 492-495. Diabetes was confirmed in streptozotocin treated rats by determining serum glucose concentrations. Only those rats were included having plasma glucose concentrations of >15 mmol/l (hyperglycemic rats, diabetic rats). Three groups of rats were investigated with n 7 to 11 per group: • 1) non-diabetic rats control group; • 2) diabetic rats control group, vehicle treated; • 3) treated diabetic rats group: with test compound of formula I ((3S,2′R)-3-{1-[2′-(ethoxycarbonyl)-4′-phenylbutyl]-cyclopentane-1-carbonylamino}-2,3,4,5-tetrahydro-2-oxo-1H-1-benzazepine-1-acetic-acid), 30 mg/kg/day for 18 weeks.
(§2) At baseline, serum glucose and blood pressure were similar in both diabetic groups. Compared to vehicle, the test compound of formula I had no effect on these parameters during the treatment period. After 18 weeks treatment, urinary protein and albumin excretion were measured. Protein excretion in the vehicle-treated group was about 18 mg/24 h; in the group which had received the compound of formula I it was about 4.8 mg/24 h (p=0.03 versus vehicle). Albumin excretion in the vehicle-group was about 0.5 mg/24 h, and in the which had received the compound of formula I it was about 0.1 mg/24 h (p=0.04). […] From the experiments it can be concluded that test compound of formula I decreases protein and albumin excretion in diabetic rats independent of blood pressure. From the results it may be concluded that the compounds of formula I exert a primary effect on end-organ disease.

Data set [2] shares this test system. Kind of data set: Glomerular filtration rate by endogenous creatinine clearance in streptozotocin-induced diabetic rats. As to conditions: 30 mg/kg/day oral, after 18 weeks of treatment. As for the experimental part:
as §1
Glomerular filtration rate was calculated by the endogeneous creatinine clearance. It was observed that administering a compound of formula I as defined above improved the overall glomerular filtration rate.

For data set [3] the test system is unchanged. The data set is described as follows: Blood pressure (tail-cuff plethysmography), heart rate, body weight, glucose and side-effects in streptozotocin-induced diabetic rats. As for the experimental part:
as §1
The experiment performed according to the present invention over 18 weeks of treatment provided the following results which are detailed in Table I, and FIGS. 1 and 2. In the context of the present invention, the most important data to be considered are the mean blood pressure (BP; tail-cuff plethysmography), the protein and albumin excretion (mean values, standard deviations) in urine which was collected in metabolic cages over 24 h, and number (n) of animals in each group regarding non-diabetic controls, diabetic vehicle treated controls (=placebo) and test compound treated group.
as §2

The mark [4] stands for this setting: 30 mg/kg/day oral, after 18 weeks of treatment.
[5] abbreviates: 30 mg/kg/day oral, during the treatment period.

Turning to `CCOC(=O)[C@H](CCc1ccccc1)CC1(C(=O)N[C@H]2CCc3ccccc3N(CC(=O)O)C2=O)CCCC1` [test compound of formula I, (3S,2′R)-3-{1-[2′-(ethoxycarbonyl)-4′-phenylbutyl]-cyclopentane-1-carbonylamino}-2,3,4,5-tetrahydro-2-oxo-1H-1-benzazepine-1-acetic-acid], in data set [1], the “Plasma concentration of ET-1 compared to vehicle” value was “unchanged”, the “Plasma concentration of angiotensin-II compared to vehicle” value is “unchanged” and the “Plasma concentration of bigET-1 compared to vehicle” value was “unchanged”. Also, the “Glomerular Filtration Rate, final, mean value” in data set [2] came to 2.014 mL/min. Further, the “Blood Pressure, mean value” in data set [3] (30 mg/kg/day oral with food, after 18 weeks of treatment, tail-cuff) is on record as 129 mmHg. Also, the Side-effects entry in data set [3] (30 mg/kg/day oral, 18 weeks) is listed as “No side-effects”. In data set [3] (setting [4]), the “Body Weight, mean value” is listed as 252.7 g; the “Glucose, final, mean value” was 560.33 mg/dL; the “Heart Rate, mean value” is 280 beats/min. For the same compound, in data set [3] (setting [5]), the “Effect on blood pressure compared to vehicle” value is on record as “no effect” and the “Effect on serum glucose compared to vehicle” value is reported as “no effect”.

These data come from patent US20050137183A1, “Method and pharmaceutical compositions for treating or inhibiting renal dysfunctions, diseases or disorders, particularly in diabetic patients” (Solvay Pharmaceuticals GmbH, priority 2003, published 2005).
